Experimental data as given in patent US4156016A, “Indole compounds and process for their preparation” (Hoffmann-La Roche Inc., priority 1977, dated 1979).

Experiments:
ADP induced aggregation = experiment: Inhibition of ADP-induced platelet aggregation (second wave) in human platelet-rich plasma; type: cell-based; settings: incubation in human citrated platelet-rich plasma
Method: (§1) Venous blood was collected from human volunteers in siliconized 20 ml. […] Platelet rich plasma (PRP) was separated from the red blood cells by centrifugation at 180×g for 15 minutes at room temperature. Platelet poor plasma (PPP) was prepared by centrifuging PRP at 1000×g for 2 minutes.
(§2) Techniques established by Born et al., J. Physiol. […] PRP (1 ml.) was added to a siliconized cuvette containing a siliconized stirring bar and placed in a densitometer maintained at 37° C. and stirred at 1000 RPM. Various concentrations of test compounds were added in 50 μl of saline and incubated with PRP for 5 minutes. Aggregation was initiated by the addition of sufficient concentrations of ADP (Sigma Chemical Co.), epinephrine HCl (Parke, Davis & Co., Detroit, Michigan), or human mammary gland collagen (obtained from Roosevelt Hospital, N.Y.) to give about 60% of maximum aggregation response. The light transmission through PPP was used to determine maximum response. The percent inhibition of aggregation caused by the drug was calculated from the strip chart recordings at the point of maximum collagen response.

Acute toxicity in mice = settings: mouse, in vivo
Method: CF-IS mice of both sexes weighing 17-25 grams were used. The compounds were ground in a mortar and suspended in 5% gum acacia for oral or intraperitoneal administration. Eight to ten mice were used per dose level. […] The LD50 was calculated by the method of Miller et al., Proc. Soc. Exp. Biol. Med., 57, pages 261-264 (1944).

[1] = Gastric ulcer induction (rats); parameters: species or system male Wistar rats; settings: rat, in vivo, po, rats; read-out: Ulcer incidence ED50
Method: The test is a modification of that described by Brodie et al., Gastroenterology, 53, pages 604-610 (1967). Male Wistar rats (Royal Hart Laboratories) were deprived of food for 18 hours prior to testing. Tap water was permitted ad libitum. Test compounds were administered orally four hours to autopsy. The rats were sacrificed under ethyl ether anesthesia, opened along the ventral midline and the stomachs removed. The stomach was divided along the lesser curvature, everted, rinsed in saline, and examined for the presence of focal hemorrhage. Ulcers were rated on an all or none basis for incidence and, in addition, each stomach is graded for severity of ulcers formed. Ulcer scores: 0=none, 1=trace, 2=mild, 3=moderate, and 4=severe. The results of the ulcer scores obtained were subjected to statistical analysis by the student `t` test.

[2] = test system: platelet prostaglandin formation; settings: cited from earlier work
[3] = test system: Epinephrine induced aggregation; experiment: Inhibition of epinephrine-induced platelet aggregation (second wave) in human platelet-rich plasma; type: cell-based; settings: incubation in human citrated platelet-rich plasma
Method: as §1, §2

[4] = test system: Collagen-Induced Platelet Aggregation; experiment: Inhibition of collagen-induced platelet aggregation in human platelet-rich plasma; type: cell-based
Method: as §1, §2

[5] = test system: Collagen-Induced Platelet Aggregation; experiment: Effect of compounds in whole blood: collagen-induced platelet aggregation after incubation in whole blood; type: cell-based, human; settings: incubation in whole blood
Method: Aliquots of citrated human blood (10 ml.) were exposed to different concentrations of the "nitrile" by mechanically shaking at room temperature for 5 minutes.

serum PGF2α = experiment: Inhibition of prostaglandin formation: serum PGF2α by radioimmunoassay (rats); type: in vivo, male rats; settings: rats; for ED50: Rattus norvegicus, 1 h; for serum PGF2α ED50: 60 min
[6] = test system: arachidonic acid induced diarrhea; experiment: Arachidonic acid diarrhea prevention (mice); type: in vivo, Carworth Farm CF-1 male mice
Method: Carworth Farm CF-1 male mice weighing 18-20 grams were administered the test compound by either the oral or intraperitoneal route one hour prior to the intraperitoneal administration of 4 mg/kg of arachidonic acid (Hoffmann-La Roche Inc.). […] The diarrhea was graded on paper towels as follows: 0=solid pellet or no bowel movement; 1=slightly soft pellet with little or no wet ring formation; 2=moderately soft pellet with definite wet ring formation; 3=soft pellet with large wet ring formation; and 4=amorphous pellet with very large wet ring formation.
The calculation of the ED50 was made according to the method of Miller et al., Proc. Soc.

thromboxanes = settings: submicrogram concentrations of PGE2; cited from earlier work
[7] = Toxicity (general statement)
[8] = test system: human blood-platelet aggregation; experiment: Inhibition of human blood-platelet aggregation (general statement)
[9] = Ulcerogenicity (general statement)
prostaglandin formation = experiment: Inhibition of prostaglandin formation (general statement)
[10] = test system: biosynthesis of thromboxanes; settings: cited from earlier work
platelet aggregation = settings: cited from earlier work
[11] = incubation in human citrated platelet-rich plasma, read-out: IC50 collagen

**Q.** With `COc1ccc2c(c1)c(CC(=O)O)c(C)n2C(=O)c1ccc(Cl)cc1` [Indomethacin, reference compound] as the molecule, how does the IC50 (ADP induced aggregation) read?
**A.** 100 nM

**Q.** And the LD50 at 120 h (Acute toxicity in mice; ip)?
**A.** 193 mg/kg

**Q.** What about the LD50 at 120 h (Acute toxicity in mice; po) of the same molecule?
**A.** 430 mg/kg

**Q.** And the TD50 at 4 h [1]?
**A.** 3 mg/kg

**Q.** And the “inhibition of platelet prostaglandin formation (in words)” value [2]?
**A.** known inhibitors of platelet prostaglandin formation

**Q.** And the IC50 [3]?
**A.** 2000 nM

**Q.** And the IC50 [4, 11]?
**A.** 1000 nM

**Q.** What about the IC50 ([5]; Homo sapiens, Platelet) of the same molecule?
**A.** 400 nM

**Q.** And the ED50 (serum PGF2α; ip)?
**A.** < 1 mg/kg

**Q.** And the ED50 (serum PGF2α; po)?
**A.** 1 mg/kg

**Q.** What about the ED50 ([6]; Mus musculus, po) of the same molecule?
**A.** 0.8 mg/kg

**Q.** With `CCCCC[C@H](O)/C=C/[C@H]1[C@H](O)CC(=O)[C@@H]1C/C=C\CCCC(=O)O` [PGE2] as the molecule, how does the “potentiation of biological effects of thromboxanes” value (thromboxanes) read?
**A.** ≤ 700%

**Q.** What does the source list for `NC(=O)c1[nH]c2ccc(C(O)(C(F)(F)F)C(F)(F)F)cc2c1-c1ccccc1` [amide, 3-Phenyl-5-[2,2,2-trifluoro-1-hydroxy-1-(trifluoromethyl)ethyl]indole-2-carboxamide]?
**A.** toxicity (in words) [7]: low in toxicity; inhibition of human blood-platelet aggregation (in words) [8]: inhibit prostaglandin formation and human blood-platelet aggregation; ulcerogenicity (in words) [9]: non-ulcerogenic; IC50 ([4]; Homo sapiens, Platelet, Table 7, read-out: Inhibition of collagen-induced platelet aggregation, Activity IC50): 3000 nM; inhibition of prostaglandin formation (in words) (prostaglandin formation): inhibit prostaglandin formation

**Q.** Which results are given for `CC(=O)Oc1ccccc1C(=O)O` [Aspirin, reference compound]?
**A.** IC50 (ADP induced aggregation): 30000 nM; inhibition of the biosynthesis of thromboxanes (in words) [10]: inhibits the biosynthesis of thromboxanes; LD50 at 120 h (Acute toxicity in mice; po): > 1000 mg/kg; TD50 at 4 h [1]: 49 mg/kg; inhibition of platelet prostaglandin formation (in words) [2]: known inhibitors of platelet prostaglandin formation; IC50 [3]: 17000 nM; IC50 [4, 11]: 30000 nM; IC50 [5]: 1500 nM; serum PGF2α ED50 (serum PGF2α; i.p.): 10 mg/kg; serum PGF2α ED50 (serum PGF2α; p.o.): 10 mg/kg; arachidonic acid induced diarrhea ED50 ([6]; p.o.): 1.3 mg/kg

**Q.** With `CCCCC[C@H](O)/C=C/[C@H]1[C@H](O)CC(=O)[C@H]1CCCCCCC(=O)O` [Example 8-iso-PGE1, (8β,11α,13E,15S)-11,15-dihydroxy-9-oxoprost-13-en-1-oic acid] as the molecule, how does the “inhibition of platelet aggregation (in words)” value (platelet aggregation) read?
**A.** demonstrated to inhibit platelet aggregation

**Q.** Which “inhibition of platelet aggregation (in words)” value (platelet aggregation) does the source give for `CCCCCC[C@H](O)/C=C/[C@H]1[C@H](O)CC(=O)[C@@H]1CCCCCCC(=O)O` [ω-homo PGE1, (11α,13E,15S)-11,15-dihydroxy-20-methyl-9-oxoprost-13-en-1-oic acid] here?
**A.** demonstrated to inhibit platelet aggregation

**Q.** With `CCCCC[C@H](O)/C=C/[C@H]1[C@H](O)CC(=O)[C@@H]1CCCCCCC(=O)O` [PGE1, (11,13E,15S)-11,15-dihydroxy-9-oxoprost-13-en-1-oic acid] as the molecule, how does the “inhibition of platelet aggregation (in words)” value (platelet aggregation) read?
**A.** demonstrated to inhibit platelet aggregation
